Converted amounts (≈) assume the structure as drawn.
What was measured:
E. coli MG1655 D87G = assay type: cell-based, Escherichia coli; conditions: compared to the isogenic parent strain E. coli MG1655; D87G mutation on DNA gyrase subunit GyrA
[1] = system: Pseudomonas aeruginosa ATCC 27853; assay: MIC, broth microdilution (CLSI) versus planktonic bacteria; assay type: cell-based; conditions: ATCC27853; Pseudomonas aeruginosa ATCC 27853; 16-20 h; mode of three independent experiments; read-out: MIC, Pa ATCC 27853
[2] = system: Neisseria meningitidis ATCC 13090; assay: as above; assay type: cell-based; conditions: ATCC13090, 16-20 h, mode of three independent experiments
[3] = system: Mycobacterium smegmatis ATCC 19420; assay: as above; assay type: cell-based; conditions: Mycolicibacterium smegmatis, ATCC19420, 16-20 h, mode of three independent experiments, read-out: MIC, Ms ATCC 19420
E. coli NCTC 13476 = assay: as above; assay type: cell-based; conditions: NCTC13476; Escherichia coli NCTC 13476; 16-20 h; mode of three independent experiments; read-out: MIC, Ec NCTC 13476
E. coli MG1655 = assay: as above; assay type: cell-based, Escherichia coli; conditions: Escherichia coli, MG1655, read-out: MIC, Ec MG1655 WT
[4] = system: Staphylococcus aureus ATCC 29213; assay: as above; assay type: cell-based; conditions: ATCC29213; Staphylococcus aureus ATCC 29213; 16-20 h; mode of three independent experiments; read-out: MIC, Sa ATCC 29213
[5] = system: Enterococcus faecalis ATCC 29212; assay: as above; assay type: cell-based; conditions: ATCC29212, 16-20 h, mode of three independent experiments, read-out: MIC, Ef ATCC 29212
[6] = system: Gram-negative and Gram-positive bacterial strains; assay type: cell-based; conditions: strain panel of Table 1
[7] = system: fluoroquinolone-resistant Enterococcus faecium ATCC 700221; assay: MIC, broth microdilution (CLSI) versus planktonic bacteria; assay type: cell-based; conditions: ATCC700221, 16-20 h, mode of three independent experiments, read-out: MIC, Efm ATCC 700221
[8] = system: Haemophilus influenzae ATCC 49247; assay: as above; assay type: cell-based; conditions: ATCC49247; Haemophilus influenzae ATCC 49247; 16-20 h; mode of three independent experiments; read-out: MIC, Hi ATCC 49247
[9] = system: human hepatic cell line (HepG2 ATCC HB-8065); assay: Human cell viability assay (CellTiter-Glo); conditions: Homo sapiens, HepG2, 24 h, read-out: IC50 (μg/mL) HepG2
[10] = system: Acinetobacter baumannii ATCC 19606; assay: MIC, broth microdilution (CLSI) versus planktonic bacteria; assay type: cell-based; conditions: ATCC19606; Acinetobacter baumannii ATCC 19606; 16-20 h; mode of three independent experiments; read-out: MIC, Ab ATCC 19606
[11] = system: Acinetobacter baumannii NCTC 13420; assay: as above; assay type: cell-based; conditions: NCTC13420; Acinetobacter baumannii NCTC 13420; 16-20 h; mode of three independent experiments; read-out: MIC, Ab NCTC 13420
[12] = system: Enterobacter cloacae NCTC 13406; assay: as above; assay type: cell-based; conditions: NCTC13406; Enterobacter cloacae NCTC 13406; 16-20 h; mode of three independent experiments; read-out: MIC, Ecl NCTC 13406
E. coli ATCC BAA-2452 = assay: as above; assay type: cell-based; conditions: Escherichia coli ATCC BAA-2452; 16-20 h; mode of three independent experiments; read-out: MIC, Ec ATCC BAA 2452
[13] = system: Escherichia coli ATCC 25922; assay: as above; assay type: cell-based; conditions: ATCC25922; Escherichia coli ATCC 25922; 16-20 h; mode of three independent experiments; read-out: MIC, Ec ATCC 25922
E. coli MG1655 S83L = assay type: cell-based, Escherichia coli; conditions: compared to the isogenic parent strain E. coli MG1655; S83L mutation on DNA gyrase subunit GyrA
[14] = system: Streptococcus pneumoniae ATCC 49619; assay: MIC, broth microdilution (CLSI) versus planktonic bacteria; assay type: cell-based; conditions: ATCC49619; Streptococcus pneumoniae ATCC 49619; 16-20 h; mode of three independent experiments; read-out: MIC, Sp ATCC 49619
[15] = system: Enterococcus faecium ATCC 19434; assay: as above; assay type: cell-based; conditions: ATCC19434, 16-20 h, mode of three independent experiments, read-out: MIC, Efm ATCC 19434
[16] = system: Burkholderia pseudomallei 1026b; assay: microbe, parasite or virus in culture; assay type: cell-based; conditions: 24 h, read-out: MIC, Burkholderia pseudomallei 1026b
[17] = system: Burkholderia pseudomallei K96243; assay: microbe, parasite or virus in culture; assay type: cell-based; conditions: K96243, 24 h, read-out: MIC, Burkholderia pseudomallei K96243
Yersinia pestis CO92 = assay: microbe, parasite or virus in culture; assay type: cell-based; conditions: CO92, read-out: MIC, Yersinia pestis CO92
[18] = system: Francisella tularensis SCHU S4; assay: microbe, parasite or virus in culture; assay type: cell-based; conditions: SCHUS4, 38 h, read-out: MIC, Francisella tularensis SCHU S4
[19] = system: Burkholderia mallei China 7; assay: microbe, parasite or virus in culture; assay type: cell-based; conditions: CHINA7, 24 h, read-out: MIC, Burkholderia mallei China 7
[20] = system: Burkholderia pseudomallei DD503; assay: microbe, parasite or virus in culture; assay type: cell-based; conditions: DD503, 24 h, read-out: MIC, Burkholderia pseudomallei DD503
Bacillus anthracis Ames = assay: microbe, parasite or virus in culture; assay type: cell-based; conditions: 24 h, read-out: MIC, Bacillus anthracis Ames

SMILES	Fold increase in MIC, E. coli MG1655 D87G (E. coli MG1655 D87G) [fold]	MIC [1] [mg/L]	MIC [2] [mg/L]	MIC [3] [mg/L]	MIC (E. coli NCTC 13476) [mg/L]	MIC (E. coli MG1655) [mg/L]	MIC [4] [mg/L]	MIC [5] [mg/L]	activity against both Gram-negative and Gram-positive bacteria (in words) [6]	MIC [7] [mg/L]	MIC [8] [mg/L]	IC50 [9] [µg/mL]	MIC [10] [mg/L]	MIC [11] [mg/L]	MIC [12] [mg/L]	MIC (E. coli ATCC BAA-2452) [mg/L]	MIC [13] [mg/L]	Fold increase in MIC, E. coli MG1655 S83L (E. coli MG1655 S83L) [fold]	MIC [14] [mg/L]	MIC [15] [mg/L]	also measured
COc1ccc2ccc(=O)n(CCN[C@@H]3CC[C@@H]4[C@@H](C3)OC(=O)N4c3ccc4c(n3)NC(=O)CO4)c2n1 [Compound 1, 1-(2-{[(3aR,6R,7aR)-2-oxo-3-{3-oxo-2H,3H,4H-pyrido[3,2-b][1,4]oxazin-6-yl}-octahydro-1,3-benzoxazol-6-yl]amino}ethyl)-7-methoxy-1,2-dihydro-1,8-naphthyridin-2-one]	1	< 1	< 1	< 1	< 1	< 1	< 1	< 1	excellent activity	< 1	< 1	> 100	< 1	< 1	< 1	< 1	< 1	1	< 1	< 1	–
COc1ncc2ccc(=O)n(CCN[C@@H]3CC[C@@H]4[C@@H](C3)OC(=O)N4c3ccc4c(n3)NC(=O)CO4)c2n1 [Compound 2, (3aR,6R,7aR)-6-[(2-{2-methoxy-7-oxo-7H,8H-pyrido[2,3-d]pyrimidin-8-yl}ethyl)amino]-3-(3-oxo-2H,3H,4H-pyrido[3,2-b][1,4]oxazin-6-yl}-octahydro-1,3-benzoxazol-2-one]	1	1 to 10 (≈ 1.97 to 19.7 µM)	< 1	< 1	1 to 10 (≈ 1.97 to 19.7 µM)	< 1	< 1	–	–	–	< 1	> 100	< 1	< 1	< 1	< 1	< 1	1	< 1	–	MIC [16]: 1 to 4 mg/L (≈ 1.97 to 7.88 µM); MIC [17]: 1 to 4 mg/L (≈ 1.97 to 7.88 µM); MIC (Yersinia pestis CO92): < 1 mg/L; MIC [18]: 1 to 4 mg/L (≈ 1.97 to 7.88 µM); MIC [19]: 1 to 4 mg/L (≈ 1.97 to 7.88 µM); MIC [20]: 1 to 4 mg/L (≈ 1.97 to 7.88 µM); MIC (Bacillus anthracis Ames): < 1 mg/L
COc1ccc2ccc(=O)n(CCCN[C@@H]3CC[C@@H]4[C@@H](C3)OC(=O)N4c3ccc4c(n3)NC(=O)CO4)c2n1 [Compound 76, 1-(3-{[(3aR,6R,7aR)-2-oxo-3-{3-oxo-2H,3H,4H-pyrido[3,2-b][1,4]oxazin-6-yl}-octahydro-1,3-benzoxazol-6-yl]amino}propyl)-7-methoxy-1,2-dihydro-1,8-naphthyridin-2-one]	2	< 1	–	–	< 1	< 1	< 1	< 1	excellent activity	< 1	< 1	10 to 100 (≈ 19.2 to 192 µM)	< 1	< 1	< 1	< 1	< 1	2	< 1	< 1	–
C[C@H]1c2cccc(O)c2C(=O)C2=C(O)[C@]3(O)C(=O)C(C(N)=O)=C(O)[C@@H](N(C)C)[C@@H]3[C@@H](O)[C@@H]21 [DOX, doxycycline, reference compound]	–	–	–	–	–	–	–	–	–	–	–	–	–	–	–	–	–	–	–	–	MIC [16]: 1 to 4 mg/L (≈ 2.25 to 9 µM); MIC [17]: 1 to 4 mg/L (≈ 2.25 to 9 µM); MIC (Yersinia pestis CO92): 1 to 4 mg/L (≈ 2.25 to 9 µM); MIC [18]: < 1 mg/L; MIC [19]: < 1 mg/L; MIC [20]: 1 to 4 mg/L (≈ 2.25 to 9 µM); MIC (Bacillus anthracis Ames): < 1 mg/L

From patent US10487093B2, “Heterocyclic compounds, in particular 2-oxo-4,4,5,5,6,6,7,7-octahydrobenzoxazole derivatives, and their use as antibacterial compounds” (priority 2016, dated 2019)
